From ChEMBL document CHEMBL1145668, “The Effect of Ultraviolet Light on the Toxicity of Natural Products Toward the Eggs of Drosophila melanogaster” (J Nat Prod, 1983) come the findings set out here.

Series [1] is described as follows: Ovicidal activity against Drosophila melanogaster egg by paper disk method. In kind it is ADME.
Series [2] in a line: Photoovicidal activity against Drosophila melanogaster egg pretreated 1 hr before UV light irradiation for 45 mins by paper disk method. Type of series: ADME. The note with it: 0.75 h.
The next series deals with Escherichia coli. Nature of the series: Phototoxicity against Escherichia coli B. Type of series: functional, organism-based.
The test system of another series is Saccharomyces cerevisiae. Nature of the series: Phototoxicity against Saccharomyces cerevisiae. In kind it is functional, organism-based.
In a further series the test system is Cyberlindnera jadinii. Briefly: Phototoxicity against Candida utilis. Type of series: functional, organism-based.
For a further series, the system named is Drosophila melanogaster. Nature of the series: Phototoxicity against Drosophila melanogaster larvae. Type of series: functional, organism-based.
For a further series, the system named is Aedes aegypti. Briefly: Phototoxicity against Aedes aegypti larvae. In kind it is functional, organism-based.
Series [3] can be described thus: Ratio of ID50 for Drosophila melanogaster egg to ID50 for Drosophila melanogaster egg irradiated with UV light for 45 mins. In kind it is ADME.
Series [4] is described as follows: Increase in ovicidal activity against Drosophila melanogaster egg incubated in dark by paper disk method. In kind it is ADME.

Calls of active or inactive are those of the source. The rule behind the calls is not given here.

In turn, `O=c1ccc2ccccc2o1` [COUMARIN] registered an LD50 in series [1] of 23 microg/cm2.
In the case of `CC#Cc1ccc(-c2ccccc2)s1`, the LD50 in [2] stood at 0.013 microg/cm2; in series [1], 2.9 microg/cm2. The result in the series on Escherichia coli, in the series with Saccharomyces cerevisiae, in the series on Cyberlindnera jadinii, with Drosophila melanogaster and in the series on Aedes aegypti was Active. Further, the selectivity ratio at 0.75 h in series [3] came to 225. For the same molecule, the Activity result in [4] is recorded as “Not Active”.
With `C#Cc1ccc(-c2ccccc2)s1`, the values for the LD50 in series [2] and in series [1] were 0.025 microg/cm2 and 4.6 microg/cm2, respectively. Also, the result in the series with Escherichia coli, in the series with Saccharomyces cerevisiae, with Cyberlindnera jadinii, with Drosophila melanogaster and with Aedes aegypti was Active. In series [3], the selectivity ratio at 0.75 h was 200. Moreover, the Activity result in series [4] was “Not Active”.
